From patent publication US5461057A, “Hydro-ethano-indeno-pyridines” (priority 1994, dated 1995)
Where two headings read alike, the source gives them in different places.

Columns and labels:
[1] = Calcein cytotoxicity assay; assay type: cell-based; settings: human, lox melanoma cells; 2 hours, calcein AM assay; read-out: 2 Hr Tox LD50
Procedure: LOX human melanoma cells were detached from tissue culture flasks with RPMI medium containing 0.2M urea and 10 mM EDTA, and 0.18 ml of cells were added to each well to a final cell concentration of 5×10^4 cells/well. 20 μl of 10× compound was added to the wells prior to cell addition. Cells were incubated with the compound at 37° C. for 1 hour or 5 hour as indicated. Calcein AM in DPBS (0.02 ml of 5 μM) was added to each well, and the plates were incubated for an additional 1 hour at room temperature. Viable cells were quantitated by reading the fluorescence on a Cytofluor 2300 fluorescent plate reader at 485 nm excitation and 530 nm emission.

[2] = test system: histamine-induced dyspnea; assay: Bronchodilator (in vivo) Guinea Pig Dyspnea; settings: oral, one hour before histamine challenge; for DYSP survivors / responders at 100 mg/kg: 100 mg/kg
Procedure: Unanesthetized guinea pigs (250-350 g), fasted overnight were placed in individual closed aerosol chambers which were connected to a Monoghan Ultrasonic nebulizer. The nebulizer can deliver an ultrasonic fog of uniform particles in a range of 1-8 microns. A 0.1% solution of histamine is aerosolized into the chambers causing the guinea pigs to develop dyspnea. The test drug was given orally one hour before the histamine challenge and the onset of dyspnea was recorded. Saline control animals developed dyspnea within 90-120 seconds of aerosol exposure. […] The data was expressed as the number tested over the number survived. The model was sensitive to bronchodilator and H1 antihistamine activity. Further information relating this test can be obtained from the following two publications which are hereby incorporated by reference: Dungan, K. W. and Lish, P. M. J Allergy 32:139-151 (1961). and Lish, P. M., Robbins, S. I. and Petres E. L. J. Pharmacol. Exp. Therap. 153 L 1538 (1966 ).

[3] = test system: LOX human melanoma cell adhesion to polylysine; assay: LOX melanoma cell adhesion to polylysine; assay type: cell-based; settings: read-out: Poly Lys IC50
Procedure: (§1) Adhesion assays were run essentially as described previously (Pai et al., J. Biomed. Res. 2: 53, 1992). 96-well plates were coated with human fibronectin (140 ng/well), human vitronectin (75 ng/well), human collagen I (100 ng/well), human collagen IV (100 ng/well), human fibrinogen (1 μg/well), murine laminin (600 ng/well), or polylysine, and incubated overnight in a humidified 37° C. incubator. Excess fibronectin or other substrate was then removed and 0.2 ml of 2 mg/ml bovine serum albumin (BSA)in Dulbecco's phosphate-buffered saline (DPBS) was added to each well, incubated for 2 hours at 37° C., and removed. LOX human melanoma cells, M27 murine lung carcinoma cells or B16F10 mouse melanoma cells were detached from tissue culture flasks with RPMI medium containing 0.2M urea and 10 mM EDTA, and 0.18 ml of cells were added to each well to a final cell concentration of 1×10^5 cells/well. For inhibition studies 20 μl of 10× compound was added to the wells prior to cell addition. Cells were allowed to adhere for 1 hour at 37° C. The wells were then gently washed twice with 0.2 ml DPBS. The fluorescent dye calcein AM (Molecular Probes, Eugene Oreg.) in DPBS (0.1 ml of 1 μM) was added to each well, and the plates were incubated for 1 hour at room temperature. Adherent cells were quantitated by reading the fluorescence on a Cytofluor 2300 fluorescent plate reader (Millipore) at 485 nm excitation and 530 nm emission.

[4] = test system: LOX human melanoma cell adhesion to human fibronectin; assay: LOX melanoma cell adhesion to fibronectin; assay type: cell-based; settings: Homo sapiens, LOX; for inhibition at 10 µM: read-out: % Inhibition at 10 μM; for inhibition at 50 µM: read-out: % Inhibition at 50 μM; for IC50: Table 4, 1 hour adhesion, read-out: LOX FN IC50
Procedure: as §1
LOX FN-IC50 value for inhibition of adhesion of LOX human melanoma cells to fibronectin coated on a plastic surface.

[5] = Cavia porcellus, 1 h, read-out: DYSP survivors (converted)

Compound	CC50 at 2 h [1]	DYSP survivors [2]	IC50 [3]	inhibition at 10 µM [4]	inhibition at 50 µM [4]	IC50 [4]	responders at 100 mg/kg [2, 5]	responders at 50 mg/kg [2, 5]	inhibition at 10 µM ([4]; 1 h)	responders at 10 mg/kg ([2]; Cavia porcellus, 1 h, 10 mg/kg, read-out: DYSP survivors (converted))	responders at 20 mg/kg ([2]; Cavia porcellus, 1 h, 20 mg/kg, read-out: DYSP survivors (converted))
CN1C2CCC1C1C(=C(c3ccccc3)c3ccc(F)cc31)C2 (centres unmarked) [M]	39.8 µM	0/3	72.7 µM	18.4%	99.6%	12.5 µM					
CN1C2CCC1C1=C(C2)C(c2cccs2)c2ccccc21 (centres unmarked) [GGG]				-27.6%	64.4%						
CN1C2CCC1C1C(=C(c3cccc(F)c3)c3ccccc31)C2 (centres unmarked) [O]	72 µM	0/3	130 µM	5.2%	97.1%	11.2 µM					
COc1ccc(C2c3ccccc3C3C2CC2CCC3N2C)cc1 (centres unmarked) [GG]		2/3		7.1%	39.1%						
CN1C2CCC1C1c3cc(Cl)ccc3C(O)(c3ccccc3)C1C2 (centres unmarked) [VV]				0.9%	15.9%		100%				
COc1ccc(C2(O)c3ccc(Cl)cc3C3C4CCC(CC32)N4C)cc1 (centres unmarked) [ZZ]				-9.7%	7%		33.3%				
CN1C2CCC1C1c3ccccc3C(O)(c3cccc(C(F)(F)F)c3)C1C2 (centres unmarked) [NN]				9.4%	24.7%			0%			
CN1C2CCC1C1c3ccc(Cl)cc3C(O)(c3ccccc3)C1C2 (centres unmarked) [YY]				-14.6%	7.4%		66.7%	100%			
COc1ccc(C2(O)c3cc(F)ccc3C3C4CCC(CC32)N4C)cc1 (centres unmarked) [CCC]							66.7%				
CN1C2CCC1C1=C(C2)C(c2ccccc2)c2cc(O)ccc21 (centres unmarked) [BB]					6.5%				-38.2%		
CN1C2CCC1C1C(=C(c3ccccc3)c3cc(F)ccc31)C2 (centres unmarked) [I]	55.9 µM	1/3	22.8 µM	35.6%	100%	7.6 µM					
CSc1ccc(C2(O)c3ccccc3C3C4CCC(CC32)N4C)cc1 (centres unmarked) [KK]				7.2%	32.8%			0%			
COc1ccc(C2(O)c3cc(Cl)ccc3C3C4CCC(CC32)N4C)cc1 (centres unmarked) [XX, 7-Chloro-5-(p-methoxyphenyl)-2-methyl-1,3-ethano-1,2,3,4,4a,9b-hexahydro-5H-indeno[1,2-c]pyridin-5-ol]				-23.1%	8.1%		100%	100%		66.7%	66.7%
CN1C2CCC1C1C(=C(c3cccc(F)c3)c3cc(F)ccc31)C2 (centres unmarked) [Compound G]	29.5 µM	1/3	63 µM	38.1%	101%	5.3 µM					
CN1C2CCC1C1c3cc(Cl)ccc3C(O)(c3ccc(F)cc3)C1C2 (centres unmarked) [LL]				-12.2%	26.6%						
CN1C2CCC1C1C(=C(c3ccc(F)cc3)c3cc(Cl)ccc31)C2 (centres unmarked) [Compound E]	21.8 µM	0/3	46.2 µM	49.5%	100%	6.2 µM					
CN1C2CCC1C1c3ccccc3C(O)(c3ccc(Cl)cc3)C1C2 (centres unmarked) [HH]				2.5%	36.9%		33.3%				
CN1C2CCC1C1c3ccc(Cl)cc3C(O)(c3ccc(F)cc3)C1C2 (centres unmarked) [II]				5.4%	34.8%		100%				
CN1C2CCC1C1C(=C(c3cccc(Cl)c3)c3ccccc31)C2 (centres unmarked) [D]	34.6 µM	1/3	71.9 µM	56.5%	101%	7.4 µM					
COc1ccc(C2(O)c3c(Cl)cccc3C3C4CCC(CC32)N4C)cc1 (centres unmarked) [BBB]				-11.8%	5.6%		33.3%				
